Measured values reported in patent US6737383B1, “Herbicidal oxadiazolidines” (priority 1999, dated 2004).

How the values were obtained:
[1] = test system: bedstraw; experiment: Test B pre/postemergence bedstraw; type: in vivo, Galium aparine
How it was run: (§1)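 Test chemicals in a non-phytotoxic solvent mixture with surfactant were sprayed preemergence onto planted seeds and postemergence onto plants 2 to 18 cm tall (1- to 4-leaf stage). After twelve to sixteen days in a greenhouse, injury was visually rated against untreated controls from 0 (no effect) to 10 (complete control).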

[2] = test system: blackgrass; experiment: Test B pre/postemergence blackgrass; type: in vivo, Alopecurus myosuroides
How it was run: as §1

[3] = test system: surinam grass; experiment: Test B pre/postemergence surinam grass; type: in vivo, Brachiaria decumbens
How it was run: as §1

[4] = test system: cocklebur; experiment: Test B pre/postemergence cocklebur; type: in vivo, Xanthium strumarium
How it was run: as §1

[5] = test system: corn; experiment: Test B pre/postemergence corn; type: in vivo, Zea mays
How it was run: as §1

[6] = test system: crabgrass; experiment: Test B pre/postemergence crabgrass; type: in vivo, Digitaria sanguinalis
How it was run: as §1

[7] = test system: giant foxtail; experiment: Test B pre/postemergence giant foxtail; type: in vivo, Setaria faberii
How it was run: as §1

[8] = test system: morningglory; experiment: Test B pre/postemergence morningglory; type: in vivo, Ipomoea hederacea
How it was run: as §1

[9] = test system: pigweed; experiment: Test B pre/postemergence pigweed; type: in vivo, Amaranthus retroflexus
How it was run: as §1

[10] = test system: rape; experiment: Test B pre/postemergence rape; type: in vivo, Brassica napus
How it was run: as §1

[11] = test system: soybean; experiment: Test B pre/postemergence soybean; type: in vivo, Glycine max
How it was run: as §1

[12] = test system: sugar beet; experiment: Test B pre/postemergence sugar beet; type: in vivo, Beta vulgaris
How it was run: as §1

[13] = test system: velvetleaf; experiment: Test B pre/postemergence velvetleaf; type: in vivo, Abutilon theophrasti
How it was run: as §1

[14] = test system: wheat; experiment: Test B pre/postemergence wheat; type: in vivo, Triticum aestivum
How it was run: as §1

[15] = test system: wild oat; experiment: Test B pre/postemergence wild oat; type: in vivo, Avena fatua
How it was run: as §1

[16] = test system: purple nutsedge; experiment: Test B pre/postemergence purple nutsedge; type: in vivo, Cyperus rotundus
How it was run: as §1

[17] = Postemergence, Rate 62 g/ha, scale of 0 to 10, 0 is no effect, 10 is complete control
[18] = Postemergence, Rate 125 g/ha, scale 0 to 10, 0 is no effect, 10 is complete control
[19] = Postemergence, Rate 500 g/ha, scale 0 to 10, 0 is no effect, 10 is complete control
[20] = Preemergence, Rate 125 g/ha, scale 0 to 10, 0 is no effect, 10 is complete control
[21] = Preemergence, Rate 500 g/ha, scale of 0 to 10 where 0 is no effect and 10 is complete control
[22] = Preemergence, Rate 62 g/ha, scale 0 to 10 (0 no effect, 10 complete control)
[23] = Rate 250 g/ha, Postemergence, scale of 0 to 10 where 0 is no effect and 10 is complete control

Structure (SMILES): COC(=O)CCCn1c(=O)on(C(=O)N(c2ccc(Cl)cc2)C(C)C)c1=O [Compound 543]
- Bedstraw plant response rating [1, 17]: 0
- Bedstraw plant response rating [1, 18]: 0
- Plant response rating, Bedstraw [1, 19]: 2
- Bedstraw plant response rating [1, 20]: 0
- Bedstraw plant response rating (0 to 10 scale) ([1]; Preemergence, Rate 250 g/ha): 0
- Bedstraw plant response rating [1, 21]: 0
- Blackgrass plant response rating [2, 17]: 0
- Blackgrass plant response rating [2, 18]: 0
- Plant response rating, Blackgrass [2, 19]: 2
- Blackgrass plant response rating [2, 22]: 0
- Blackgrass plant response rating [2, 20]: 0
- Blackgrass plant response rating (0 to 10 scale) ([2]; Preemergence, Rate 250 g/ha): 0
- Blackgrass plant response rating [2, 21]: 2
- Plant response rating, Blackgrass [2, 23]: 0
- B. signalgrass plant response rating [3, 17]: 0
- B. signalgrass plant response rating [3, 18]: 0
- Plant response rating, B. signalgrass [3, 19]: 3
- B. signalgrass plant response rating [3, 22]: 0
- B. signalgrass plant response rating [3, 20]: 4
- B. signalgrass plant response rating (0 to 10 scale, 0 is no effect, 10 is complete control) ([3]; Preemergence, Rate 250 g/ha): 4
- B. signalgrass plant response rating [3, 21]: 6
- Plant response rating, B. signalgrass [3, 23]: 3
- Cocklebur plant response rating [4, 17]: 0
- Cocklebur plant response rating [4, 18]: 0
- Plant response rating, Cocklebur [4, 19]: 1
- Cocklebur plant response rating [4, 20]: 0
- Cocklebur plant response rating (0 to 10 scale) ([4]; Preemergence, Rate 250 g/ha): 0
- Cocklebur plant response rating [4, 21]: 10
- Plant response rating, Cocklebur [4, 23]: 0
- Corn plant response rating [5, 17]: 0
- Corn plant response rating [5, 18]: 0
- Plant response rating, Corn [5, 19]: 0
- Corn plant response rating [5, 22]: 0
- Corn plant response rating [5, 20]: 0
- Corn plant response rating (0 to 10 scale) ([5]; Preemergence, Rate 250 g/ha): 0
- Corn plant response rating [5, 21]: 0
- Plant response rating, Corn [5, 23]: 0
- Crabgrass plant response rating [6, 17]: 0
- Plant response rating, Crabgrass [6, 19]: 7
- Crabgrass plant response rating [6, 22]: 4
- Crabgrass plant response rating [6, 20]: 4
- Crabgrass plant response rating (0 to 10 scale) ([6]; Preemergence, Rate 250 g/ha): 6
- Plant response rating, Crabgrass [6, 23]: 3
- Giant foxtail plant response rating [7, 17]: 0
- Giant foxtail plant response rating [7, 18]: 0
- Plant response rating, Giant foxtail [7, 19]: 3
- Giant foxtail plant response rating [7, 22]: 3
- Giant foxtail plant response rating [7, 20]: 3
- Giant foxtail plant response rating (0 to 10 scale) ([7]; Preemergence, Rate 250 g/ha): 9
- Giant foxtail plant response rating [7, 21]: 9
- Plant response rating, Giant foxtail [7, 23]: 0
- Morningglory plant response rating [8, 17]: 1
- Morningglory plant response rating [8, 18]: 2
- Plant response rating, Morningglory [8, 19]: 7
- Morningglory plant response rating [8, 22]: 0
- Morningglory plant response rating [8, 20]: 0
- Morningglory plant response rating (0 to 10 scale) ([8]; Preemergence, Rate 250 g/ha): 0
- Morningglory plant response rating [8, 21]: 0
- Plant response rating, Morningglory [8, 23]: 4
- Redroot pigweed plant response rating [9, 17]: 0
- Redroot pigweed plant response rating [9, 18]: 0
- Plant response rating, Redroot pigweed [9, 19]: 0
- Redroot pigweed plant response rating [9, 22]: 7
- Redroot pigweed plant response rating [9, 20]: 7
- Redroot pigweed plant response rating (0 to 10 scale) ([9]; Preemergence, Rate 250 g/ha): 9
- Plant response rating, Redroot pigweed [9, 23]: 0
- Rape plant response rating [10, 17]: 0
- Rape plant response rating [10, 18]: 0
- Plant response rating, Rape [10, 19]: 0
- Rape plant response rating [10, 22]: 0
- Rape plant response rating [10, 20]: 0
- Rape plant response rating (0 to 10 scale) ([10]; Preemergence, Rate 250 g/ha): 0
- Rape plant response rating [10, 21]: 0
- Plant response rating, Rape [10, 23]: 0
- Soybean plant response rating [11, 17]: 0
- Soybean plant response rating [11, 18]: 2
- Plant response rating, Soybean [11, 19]: 2
- Soybean plant response rating [11, 22]: 0
- Soybean plant response rating [11, 20]: 0
- Soybean plant response rating (0 to 10 scale) ([11]; Preemergence, Rate 250 g/ha): 2
- Soybean plant response rating [11, 21]: 2
- Plant response rating, Soybean [11, 23]: 2
- Sugarbeets plant response rating [12, 17]: 0
- Sugarbeets plant response rating [12, 18]: 0
- Plant response rating, Sugarbeets [12, 19]: 3
- Sugarbeets plant response rating [12, 22]: 4
- Sugarbeets plant response rating [12, 20]: 5
- Sugarbeets plant response rating (0 to 10 scale) ([12]; Preemergence, Rate 250 g/ha): 6
- Plant response rating, Sugarbeets [12, 23]: 2
- Velvetleaf plant response rating [13, 17]: 0
- Velvetleaf plant response rating [13, 18]: 0
- Plant response rating, Velvetleaf [13, 19]: 3
- Velvetleaf plant response rating [13, 22]: 0
- Velvetleaf plant response rating [13, 20]: 0
- Velvetleaf plant response rating (0 to 10 scale) ([13]; Preemergence, Rate 250 g/ha): 0
- Velvetleaf plant response rating [13, 21]: 0
- Plant response rating, Velvetleaf [13, 23]: 0
- Wheat plant response rating [14, 17]: 0
- Wheat plant response rating [14, 18]: 0
- Plant response rating, Wheat [14, 19]: 0
- Wheat plant response rating [14, 22]: 0
- Wheat plant response rating [14, 20]: 0
- Wheat plant response rating (0 to 10 scale) ([14]; Preemergence, Rate 250 g/ha): 0
- Wheat plant response rating [14, 21]: 0
- Plant response rating, Wheat [14, 23]: 0
- Wild oats plant response rating [15, 17]: 0
- Wild oats plant response rating [15, 18]: 0
- Plant response rating, Wild oats [15, 19]: 3
- Wild oats plant response rating [15, 22]: 0
- Wild oats plant response rating [15, 20]: 0
- Wild oats plant response rating (0 to 10 scale) ([15]; Preemergence, Rate 250 g/ha): 0
- Wild oats plant response rating [15, 21]: 0
- Plant response rating, Wild oats [15, 23]: 0
- Nutsedge plant response rating [16, 17]: 0
- Nutsedge plant response rating [16, 18]: 0
- Plant response rating, Nutsedge [16, 19]: 0
- Nutsedge plant response rating [16, 22]: 0
- Nutsedge plant response rating [16, 20]: 0
- Nutsedge plant response rating (0 to 10 scale) ([16]; Preemergence, Rate 250 g/ha): 0
- Nutsedge plant response rating [16, 21]: 8
- Plant response rating, Nutsedge [16, 23]: 0
